k = constrained ethyl (cEt); d = 2'-deoxy (DNA)

The subject of data set [1] is mouse Metastasis associated lung adenocarcinoma transcript 1 (Malat-1). Description: In vivo dose response of Isis No. 556062 with and without FTY-720 pre-treatment (Malat-1 RNA, Example 3). Conditions: mice, Liver. The procedure:
(§1) Each treatment group consisted of 4 animals.
Malat-1 RNA levels were determined as described in Example 2. The results are presented in Table 18 as average Malat-1 RNA levels for each treatment group. Results for groups that received Isis No. 556062 alone are relative the group that received only PBS, and results for groups that received Isis No. 556062 and 1 mg/kg FTY-720 are relative to the group that received 1 mg/kg FTY-720 and PBS in place of Isis No. 556062.

A short description of data set [2]: Liver transaminase levels (ALT, AST) in serum, Example 3. Type of data set: in vivo. Conditions: mice serum.
Source text: as §1

[3] abbreviates: 0.3 mg/kg 556062 subcutaneous, FTY-720 dose 0 mg/kg.
Setting [4] is: 1 mg/kg 556062 subcutaneous, FTY-720 dose 0 mg/kg.
[5] abbreviates: 3 mg/kg 556062 subcutaneous, FTY-720 dose 0 mg/kg.
Setting [6] is: 9 mg/kg 556062 subcutaneous, FTY-720 dose 0 mg/kg.
Where [7] appears, read: 0.3 mg/kg 556062 subcutaneous, FTY-720 dose 1 mg/kg.
Where [8] appears, read: 1 mg/kg 556062 subcutaneous, FTY-720 dose 1 mg/kg.
[9] abbreviates: 3 mg/kg 556062 subcutaneous, FTY-720 dose 1 mg/kg.
Where [10] appears, read: 9 mg/kg 556062 subcutaneous, FTY-720 dose 1 mg/kg.

Consider “556062 (antisense GGCTTAATGCAGCATT; sugars from the 5' end k3 d10 k3, all phosphorothioate, methylation of C not given here) [compound 556062]”, for which the “Average Malat-1 RNA” value in data set [1] (setting [3]) turned out to be 80 % control; in data set [1] (0.3 mg/kg 556062 subcutaneous, FTY-720 dose 1 mg/kg i.p. daily) it was 63 % control; in data set [1] (setting [4]) it was 49 % control; in data set [1] (1 mg/kg 556062 subcutaneous, FTY-720 dose 1 mg/kg i.p. daily), 36 % control; in data set [1] (setting [5]), 18 % control; in data set [1] (3 mg/kg 556062 subcutaneous, FTY-720 dose 1 mg/kg i.p. daily) it was 19 % control. The “Average Malat-1 RNA” value was found to be 11 % control in data set [1] (setting [6]) and 6 % control in data set [1] (9 mg/kg 556062 subcutaneous, FTY-720 dose 1 mg/kg i.p. daily). For the same substance, the ALT in data set [2] (setting [3]) came to 24 U/L; in data set [2] (setting [7]), 17 U/L; in data set [2] (setting [4]) it was 56 U/L; in data set [2] (setting [8]) it was 18 U/L; in data set [2] (setting [5]), 24 U/L; in data set [2] (setting [9]) it was 25 U/L. Also, the ALT in data set [2] (setting [6]) was 31 U/L; in data set [2] (setting [10]) it was 24 U/L. The AST amounted to 48 U/L in data set [2] (setting [3]); 48 U/L in data set [2] (setting [7]); 50 U/L in data set [2] (setting [4]); 45 U/L in data set [2] (setting [8]); 58 U/L in data set [2] (setting [5]); 40 U/L in data set [2] (setting [9]). Further, the AST in data set [2] (setting [6]) turned out to be 71 U/L; in data set [2] (setting [10]), 46 U/L.

The values are drawn from patent US20170283804A1, “ANTISENSE COMPOUNDS AND USES THEREOF” (Ionis Pharmaceuticals, Inc., priority 2014, published 2017).
